Results reported in ChEMBL document CHEMBL5360561, “Design, synthesis and biological evaluation of fluorinated selective estrogen receptor degraders (FSERDs) --- A promising strategy for advanced ER positive breast cancer” (Eur J Med Chem, 2023).
Activity calls are given as the source filed them. The calls are words filed in the database; no cut-off is given here.

Experiments:
MCF7 [1] = assay: Induction of ER degradation in human MCF7 cells at 10 uM incubated for 24 hrs by Western blot analysis; type: cell-based
Ishikawa = assay: Antiproliferative activity against human Ishikawa cells assessed as cell growth inhibition at 20 uM incubated for 3 days by MTT assay; type: functional; conditions: for inhibition at 20 µM: 72 h, time 3 day; for inhibition: time 3.0 day
MCF7 [2] = assay: Antiproliferative activity against human MCF7 cells assessed as cell growth inhibition incubated for 5 days by MTT assay; type: functional, cell-based; conditions: MCF7, 120 h
MCF7 [3] = assay: Induction of cell cycle arrest in human MCF7 cells assessed as accumulation at G0/G1 phase at 10 uM incubated for 24 hrs by flow cytometry (Rvb= 46.53 +/- 0.44%); type: functional
MCF7 [4] = assay: Antitumor activity against human MCF7 cells xenografted in nude mouse assessed as tumor growth inhibition at 10 mg/kg,po for 30 days; type: functional, organism-based; conditions: time 30.0 day
MCF7 [5] = assay: Antitumor activity against human MCF7 cells xenografted in nude mouse assessed as tumor growth inhibition at 30 mg/kg,po for 30 days daily; type: functional, organism-based; conditions: time 30.0 day
[6] = Toxicity in Sprague-Dawley rat uterus assessed as change in uterine wet weight at 30 mg/kg, po for 2 days consecutively; type: organism-based; conditions: in vivo, 48 h, time 2 day
MCF7 [7] = assay: Stabilization of ER in human MCF7 cells at 10 uM incubated for 24 hrs by Western blot analysis; type: cell-based
[8] = Plasma concentration in ICR mouse at 100 mg/kg, po and measured after 0.5 hrs by LC-MS analysis; type: ADME, organism-based
[9] = Plasma concentration in ICR mouse at 100 mg/kg, po and measured after 0.25 hrs by LC-MS analysis; type: ADME, organism-based
[10] = Plasma concentration in ICR mouse at 100 mg/kg, po and measured after 1 hrs by LC-MS analysis; type: ADME, organism-based

Structure (SMILES) | Activity (MCF7 [1]) | inhibition at 20 µM (Ishikawa) [%] | IC50 (MCF7 [2]) [nM] | other results
Cc1cc(Cl)cc(C)c1C(=O)c1sc2cc(F)ccc2c1Oc1ccc(/C=C/C(=O)O)cc1 | Active | 6 | 560 | –
C[C@]12CC[C@@H]3c4ccc(O)cc4C[C@@H](CCCCCCCCC[S+]([O-])CCCC(F)(F)C(F)(F)F)[C@H]3[C@@H]1CC[C@@H]2O (stereo partly drawn) [FULVESTRANT] | – | – | 0.1 | Activity (MCF7 [3]): 62.28%; Activity (MCF7 [4]): Active; inhibition (Ishikawa): inactive
Cc1cc(Oc2c(C(=O)c3ccccc3)sc3cc(F)ccc23)ccc1/C=C/C(=O)O | Active | 19 | 670 | –
CC/C(=C(\c1ccccc1)c1ccc(OCCN(C)C)cc1)c1ccccc1 [TAMOXIFEN] | – | 50 | 2330 | Activity (MCF7 [5]): Active; Activity (MCF7 [3]): 67.34%; Activity [6]: Toxic; Activity (MCF7 [7]): Active
O=C(O)/C=C/c1ccc(Oc2c(C(=O)c3cccc4sccc34)sc3cc(F)ccc23)cc1 | Active | 12 | 4280 | –
O=C(O)/C=C/c1ccc(Oc2c(C(=O)c3ccccc3)sc3cc(F)ccc23)cc1 | Active | 8 | 2120 | concentration at 0.5 h [8]: 16000 ng/mL; concentration at 0.25 h [9]: 9860 ng/mL; concentration at 1 h [10]: 15600 ng/mL
Cc1cc(C)cc(C(=O)c2sc3cc(F)ccc3c2Oc2ccc(/C=C/C(=O)O)cc2)c1 | Active | – | 2590 | inhibition (Ishikawa): inactive
